# In patent US20100168105A1, “Spirocyclopropyl Piperidine Derivatives” (priority 2007, published 2010):
# Columns and labels:
# [1] = target: T1, human Histamine H3 receptor (hH3R) (Homo sapiens, UniProt Q9Y5N1); assay: Guanosine 5'-O-(3-[35S]thio)triphosphate [GTPγS] Binding Assay; format: biochemical; settings: antagonist activity; membranes from CHO cells expressing hH3R, (R)-α-methyl histamine 30 nM, [35S]GTPγS 0.2 nM, 90 minutes
# T1 construct: expressed in transfected cells; host or cells: CHO cells (membranes)
# T1 sequence (Q9Y5N1 whole entry): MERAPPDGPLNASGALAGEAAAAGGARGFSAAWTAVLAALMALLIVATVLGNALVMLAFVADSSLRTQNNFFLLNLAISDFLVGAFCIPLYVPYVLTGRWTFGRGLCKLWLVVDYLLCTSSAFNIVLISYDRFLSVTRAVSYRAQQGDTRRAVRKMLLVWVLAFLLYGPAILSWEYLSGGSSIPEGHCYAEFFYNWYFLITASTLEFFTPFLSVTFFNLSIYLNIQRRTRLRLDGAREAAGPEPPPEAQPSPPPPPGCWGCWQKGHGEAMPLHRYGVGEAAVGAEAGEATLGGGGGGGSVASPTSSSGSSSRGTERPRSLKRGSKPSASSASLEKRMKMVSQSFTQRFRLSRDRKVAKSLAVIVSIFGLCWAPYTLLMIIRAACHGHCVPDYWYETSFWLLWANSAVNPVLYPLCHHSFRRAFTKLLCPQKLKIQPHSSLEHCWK
# Method: Guanosine 5′-O-(3-[^35]thio)triphosphate [GTPγS] Binding Assay
# The GTPγS binding assay can be used to investigate antagonist properties of compounds in CHO cells (Chinese Hamster Ovary) transfected with human Histamine H3 receptor (hH3R). […] To determine antagonist activity, (R)-α-methyl histamine (30 nM) is added in 96 well SPA plate with [^35S]GTPγS (0.2 nM) and various concentration of H3R antagonists. The GTPγS binding assay is started with addition of the mixture membrane/saponine/GDP and incubated for 90 minutes at room temperature. The amount of bound [^35S]GTPγS is determined by using the MicroBeta Trilux counter (PerkinElmer). The percentage of [^35S]GTPγS bound in each sample is calculated as a percentage of that bound control sample incubated in absence of H3 antagonist. Duplicate determinations are obtained for each concentration, and the data are analyzed using ExcelFit4 to obtain the IC50.
# [2] = target: human histamine H3 receptors (full-length H3, isoform 445) (Homo sapiens, UniProt Q9Y5N1); settings: hH3 binding IC50 (nM), inhibition of 1.4 nM [3H]-N-α-methylhistamine binding to CHO-K1 membranes expressing human H3, SPA, 1.5 hr;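 further: scintillation counts read after the 1.5 hr incubation at room temperature with shaking, Imetit serving as reference control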
# Sequence of human histamine H3 receptors (full-length H3, isoform 445) (Q9Y5N1 whole entry, canonical isoform): as the sequence (Q9Y5N1 whole entry) above
# Method: Histamine H3 SPA with the Agonist Radioligand [^3H]—N-α-methylhistamine
# Reproducibility of the assay is such that IC50 curves can be generated in singlicate. Single poke (SP) testing was done in triplicate.
# Membranes, prepared from CHO-K1 cells stably expressing the human histamine H3 receptor, were obtained from ACS.
# Tested formula I compounds were provided as solubilized samples in neat DMSO. Serial dilutions were performed in DMSO.
# Plates were read on a Perkin Elmer TopCount. CPM data were used to analyze unless DPM data generated by a quench curve were required.
# • 1. 1 mg/ml BSA was added to assay buffer (AB) on day of assay. • 2. […] Buffer volume was split between beads and membranes to allow for polytroning of membranes prior to addition to beads. • a. […] Waited a minimum of 15 minutes prior to adding membranes (See b. below.). • b. […] The homogenized membrane mixture was combined with the beads and a minimum of 30 minutes was waited prior to dispensing to plate. • 3. Formula I compounds: For Single Poke, 2 μl 1 mM of a compound in accordance with formula I was dispensed to Optiplates (triplicate plates) for final concentration of 10 μM. […] Imetit (see below) was used as a control. • 4. […] 5 μl samples were calculated in quadruplicate on the β counter. […] (For IC50s, use final concentration on calculation tab of ABase template.)
# • 1. […] 2 μl of the formula I compound dilution was mixed and then transferred into assay plates. DMSO was removed and 2 μl of 100 μM Imetit was added to the wells. • 3. 178 μl bead/membrane mixture was dispensed into the assay plate. • 4. 20 μl [^3H]-NAMH was added with Rapid Plate. The assay plate was sealed and incubated for 1.5 hr on RT shaker at speed ˜6.5. • 5. The assay plate was subsequently centrifuged at 1000 rpm for 10 minutes. • 6. The count was performed on TopCount using one of the 3H SPA H3 Quench programs.
# The DPM data was analyzed when tSIS was less than that associated with 70% of full scale on the quench curve (tSIS<25%). Otherwise, CPM data was used.
Structure (SMILES),IC50 [1] [nM],IC50 [2] [nM]
"CC(C)N1CCN(C(=O)C2CC23CCN(C2CCOCC2)CC3)CC1 (stereo not drawn) [Example 10, (4-Isopropylpiperazin-1-yl)(6-(tetrahydro-2H-pyran-4-yl)-6-azaspiro[2.5]octan-1-yl)methanone]",3.25,9.02
"O=C(C1CC12CCN(C1CCOCC1)CC2)N1CCN(C2CCCC2)CC1 (stereo not drawn) [Example 12, (4-cyclopentylpiperazin-1-yl)(6-(tetrahydro-2H-pyran-4-yl)-6-azaspiro[2.5]octan-1-yl)methanone]",8.8,4.43
"O=C(C1CC12CCN(C1CCOCC1)CC2)N1CCN(c2ccncc2)CC1 (stereo not drawn) [Example 14, (4-Pyridin-4-yl-piperazin-1-yl)-[6-(tetrahydro-pyran-4-yl)-6-aza-spiro[2.5]oct-1-yl]-methanone]",139,26.1
"CN1CCC(N2CCC3(CC2)CC3C(=O)N2CCN(C3CCCCC3)CC2)CC1 (stereo not drawn) [Example 20, (4-Cyclohexyl-piperazin-1-yl)-[6-(1-methyl-piperidin-4-yl)-6-aza-spiro[2.5]oct-1-yl]-methanone]",22.5,97.2
"CC(C)N1CCC2(CC1)CC2C(=O)N1CCN(C2CCCCC2)CC1 (stereo not drawn) [Example 21, (4-Cyclohexyl-piperazin-1-yl)-(6-isopropyl-6-aza-spiro[2.5]oct-1-yl)-methanone]",19.3,141
"O=C(C1CC12CCN(C1CCC1)CC2)N1CCN(C2CCOCC2)CC1 (stereo not drawn) [Example 22, (6-Cyclobutyl-6-aza-spiro[2.5]oct-1-yl)-[4-(tetrahydro-pyran-4-yl)-piperazin-1-yl]-methanone]",67,209
"O=C(C1CC12CCN(C1CCCSC1)CC2)N1CCN(C2CCC2)CC1 (stereo not drawn) [Example 30, (4-Cyclobutyl-piperazin-1-yl)-[6-(tetrahydro-thiopyran-3-yl)-6-aza-spiro[2.5]oct-1-yl]-methanone]",14.3,10.1
"O=C(C1CC12CCN(C1CCCCC1)CC2)N1CCN(C2CCC2)CC1 (stereo not drawn) [Example 31, (4-Cyclobutyl-piperazin-1-yl)-(6-cyclohexyl-6-aza-spiro[2.5]oct-1-yl)-methanone]",13.5,11.3
"O=C(C1CC12CCN(C1CCCOC1)CC2)N1CCN(C2CCC2)CC1 (stereo not drawn) [Example 32, (4-Cyclobutyl-piperazin-1-yl)-[6-(tetrahydro-pyran-3-yl)-6-aza-spiro[2.5]oct-1-yl]-methanone]",17,15
"O=C(C1CC12CCN(CCN1CCOCC1)CC2)N1CCN(C2CCC2)CC1 (stereo not drawn) [Example 34, (4-Cyclobutyl-piperazin-1-yl)-[6-(2-morpholin-4-yl-ethyl)-6-aza-spiro[2.5]oct-1-yl]-methanone]",13.5,24.4

# Now from value to compound:
IC50 [1] [nM],IC50 [2] [nM],Structure (SMILES)
74,196,"O=C(C1CC12CCN(C1CCOCC1)CC2)N1CCN(C2CCCCCC2)CC1 (stereo not drawn) [Example 11, (4-Cycloheptylpiperazin-1-yl)(6-(tetrahydro-2H-pyran-4-yl)-6-azaspiro[2.5]octan-1-yl)methanone]"
16.5,65.2,"O=C(C1CC12CCN(CCc1ccccc1)CC2)N1CCN(C2CCCCC2)CC1 (stereo not drawn) [Example 16, (4-Cyclohexyl-piperazin-1-yl)-(6-phenethyl-6-aza-spiro[2.5]oct-1-yl)-methanone]"
10.1,56.5,"O=C(C1CC12CCN(C1CCCCC1)CC2)N1CCN(C2CCCCC2)CC1 (stereo not drawn) [Example 19, (6-Cyclohexyl-6-aza-spiro[2.5]oct-1-yl)-(4-cyclohexyl-piperazin-1-yl)-methanone]"
5.5,35.1,"O=C(C1CC12CCN(C1CCOC1)CC2)N1CCN(C2CCC2)CC1 (stereo not drawn) [Example 33, (4-Cyclobutyl-piperazin-1-yl)-[6-(tetrahydro-furan-3-yl)-6-aza-spiro[2.5]oct-1-yl]-methanone]"
85.3,165,"O=C(C1CC12CCN(c1ccncc1)CC2)N1CCN(C2CCCCC2)CC1 (stereo not drawn) [Example 35, (4-Cyclohexyl-piperazin-1-yl)-(6-pyridin-4-yl-6-aza-spiro[2.5]oct-1-yl)-methanone]"
